In the NIST ThermoML archive (doi:10.1016/j.jct.2012.07.007):
Numbers after ± are expanded uncertainties.

How the values were obtained:
[1] = xn = mol fraction of the nth substance listed; conditions: 101 kPa, Liquid; for speed of sound: Linear variable-path acoustic interferometer; for mass density: Vibrating tube method
[2] = excess molar enthalpy (molar enthalpy of mixing); xn = mol fraction of the nth substance listed; conditions: 298.15 K, 101 kPa, Liquid, 2-drop calorimetry

Cc1cccnc1 [3-methylpyridine] + CCn1cc[n+](C)c1.F[B-](F)(F)F
[1]
Conditions | mass density, 293.15 K [kg/m3] | mass density, 298.15 K [kg/m3] | mass density, 303.15 K [kg/m3] | mass density, 308.15 K [kg/m3] | speed of sound, 293.15 K [m/s] | speed of sound, 298.15 K [m/s] | speed of sound, 303.15 K [m/s] | speed of sound, 308.15 K [m/s]
x2 = 0.1217 | 1024.56 ± 0.32 | 1020.46 ± 0.32 | 1016.63 ± 0.31 | 1011.73 ± 0.31 | 1479.9 ± 1.9 | 1465 ± 1.9 | 1443.4 ± 1.9 | 1427 ± 1.9
x2 = 0.1729 | 1050.57 ± 0.37 | 1046.54 ± 0.36 | 1042.83 ± 0.36 | 1038.13 ± 0.35 | 1494.7 ± 1.9 | 1480.8 ± 1.9 | 1459.7 ± 1.9 | 1443.9 ± 1.9
x2 = 0.2415 | 1082.96 ± 0.43 | 1079.02 ± 0.43 | 1075.3 ± 0.42 | 1070.72 ± 0.42 | 1514 ± 2 | 1499.7 ± 2 | 1481.3 ± 2 | 1465.7 ± 2
x2 = 0.2711 | 1096.07 ± 0.46 | 1092.1 ± 0.46 | 1088.37 ± 0.45 | 1084.01 ± 0.45 | 1521.8 ± 2 | 1507.9 ± 2 | 1490.3 ± 2 | 1474.6 ± 2
x2 = 0.3214 | 1117.16 ± 0.52 | 1113.25 ± 0.51 | 1109.49 ± 0.51 | 1105.3 ± 0.5 | 1535.6 ± 2.1 | 1520.5 ± 2 | 1504.5 ± 2 | 1488.8 ± 2
x2 = 0.3732 | 1137.38 ± 0.58 | 1133.44 ± 0.57 | 1129.62 ± 0.57 | 1125.73 ± 0.56 | 1548.8 ± 2.1 | 1532.8 ± 2.1 | 1519.4 ± 2.1 | 1503.3 ± 2.1
x2 = 0.4219 | 1154.95 ± 0.63 | 1151.03 ± 0.63 | 1147.27 ± 0.62 | 1143.6 ± 0.62 | 1560.1 ± 2.1 | 1543.2 ± 2.1 | 1532.2 ± 2.1 | 1517 ± 2.1
x2 = 0.4718 | 1171.59 ± 0.69 | 1167.7 ± 0.69 | 1163.94 ± 0.68 | 1160.52 ± 0.68 | 1571.8 ± 2.2 | 1554.4 ± 2.2 | 1544.1 ± 2.2 | 1530 ± 2.2
x2 = 0.5209 | 1186.68 ± 0.76 | 1182.83 ± 0.75 | 1179.2 ± 0.75 | 1175.87 ± 0.74 | 1581.6 ± 2.2 | 1564 ± 2.2 | 1556 ± 2.2 | 1541.8 ± 2.2
x2 = 0.5723 | 1201.17 ± 0.82 | 1197.38 ± 0.82 | 1193.82 ± 0.81 | 1190.64 ± 0.81 | 1591.9 ± 2.3 | 1574.7 ± 2.2 | 1566.4 ± 2.2 | 1554.1 ± 2.2
x2 = 0.6221 | 1214.02 ± 0.89 | 1210.25 ± 0.89 | 1206.88 ± 0.88 | 1203.74 ± 0.88 | 1600.3 ± 2.3 | 1583.7 ± 2.3 | 1576.1 ± 2.3 | 1565.4 ± 2.3
x2 = 0.6731 | 1226.02 ± 0.96 | 1222.36 ± 0.96 | 1219.18 ± 0.95 | 1215.94 ± 0.95 | 1607.5 ± 2.3 | 1593 ± 2.3 | 1585.5 ± 2.3 | 1576.2 ± 2.3
x2 = 0.7212 | 1236.43 ± 1 | 1232.83 ± 1 | 1229.78 ± 1 | 1226.48 ± 1 | 1614.1 ± 2.4 | 1601.4 ± 2.4 | 1592.8 ± 2.4 | 1585.3 ± 2.4
x2 = 0.7708 | 1246.34 ± 1.1 | 1242.76 ± 1.1 | 1239.81 ± 1.1 | 1236.4 ± 1.1 | 1619.1 ± 2.4 | 1608.8 ± 2.4 | 1598.7 ± 2.4 | 1593.7 ± 2.4
x2 = 0.8224 | 1255.77 ± 1.2 | 1252.24 ± 1.2 | 1249.34 ± 1.2 | 1245.81 ± 1.2 | 1623.7 ± 2.5 | 1614.9 ± 2.5 | 1604.2 ± 2.5 | 1599.5 ± 2.4
x2 = 0.8713 | 1264.1 ± 1.3 | 1260.53 ± 1.2 | 1257.58 ± 1.2 | 1253.89 ± 1.2 | 1627.2 ± 2.5 | 1619.3 ± 2.5 | 1607.5 ± 2.5 | 1603 ± 2.5
x2 = 0.9119 | 1270.62 ± 1.3 | 1266.99 ± 1.3 | 1263.93 ± 1.3 | 1260.07 ± 1.3 | 1629 ± 2.5 | 1621.6 ± 2.5 | 1609 ± 2.5 | 1603.9 ± 2.5
x2 = 0.9317 | 1273.7 ± 1.4 | 1270 ± 1.4 | 1266.86 ± 1.3 | 1262.91 ± 1.3 | 1629.8 ± 2.5 | 1621.8 ± 2.5 | 1609.2 ± 2.5 | 1603.2 ± 2.5

[2]
Conditions | excess molar enthalpy [kJ/mol]
x2 = 0.1256 | -0.136 ± 0.0032
x2 = 0.1676 | -0.171 ± 0.0039
x2 = 0.2089 | -0.205 ± 0.0046
x2 = 0.2578 | -0.245 ± 0.0055
x2 = 0.2976 | -0.272 ± 0.0061
x2 = 0.3387 | -0.294 ± 0.0065
x2 = 0.3898 | -0.32 ± 0.0071
x2 = 0.4367 | -0.341 ± 0.0075
x2 = 0.4876 | -0.361 ± 0.0079
x2 = 0.5223 | -0.369 ± 0.0081
x2 = 0.599 | -0.376 ± 0.0082
x2 = 0.6345 | -0.372 ± 0.0082
x2 = 0.689 | -0.36 ± 0.0079
x2 = 0.7356 | -0.339 ± 0.0075
x2 = 0.7909 | -0.298 ± 0.0066
x2 = 0.8479 | -0.244 ± 0.0055
x2 = 0.889 | -0.197 ± 0.0045
x2 = 0.9109 | -0.165 ± 0.0038
